From publication PMC12040169 (PLOS Biology, 2025)

experiment: in vitro; details: human, hela cells, % viability

With `O=C(c1ccc(-c2ccccc2)cc1)c1no[n+]([O-])c1C(=O)c1ccc(-c2ccccc2)cc1` [CBK261754] as the compound, how does the viability at 28.5 h, 10 µM read?
Its viability at 28.5 h, 10 µM is 106%.

For `CC(=O)Nc1c(Nc2ccccc2)c2ccccc2oc1=O` [CBK261756], which viability at 28.5 h, 10 µM is on record?
The viability at 28.5 h, 10 µM was 88.1%.

Which viability at 28.5 h, 10 µM does the source give for `O=S(=O)(NCCN1CCOCC1)c1cc(Cl)ccc1Cl` [CBK261757] here?
The viability at 28.5 h, 10 µM was 85.1%.

For `CC(C)OCC(O)C[S+]([O-])Cc1ccccc1` (stereo not shown) [CBK261761], which viability at 28.5 h, 10 µM is on record?
Its viability at 28.5 h, 10 µM is 93.4%.

Which viability at 28.5 h, 10 µM does the source give for `NNC(=O)c1cc(-c2ccccc2)nc2ccc(Br)cc12` [CBK261762] here?
The viability at 28.5 h, 10 µM was 102%.

Which viability at 28.5 h, 10 µM does the source give for `Cc1cc(C)nc(SCCN2CCOCC2)n1` [CBK261769C] here?
The viability at 28.5 h, 10 µM was 93.8%.

Which viability at 28.5 h, 10 µM does the source give for `Cc1cc(/C=N/O)c(C)c(COCc2cc(C)cc(/C=N/O)c2C)c1` [CBK261770] here?
The viability at 28.5 h, 10 µM was 91.2%.

With `COc1ccc(Oc2cc(Cl)nc(N)n2)cc1` [CBK261771] as the compound, how does the viability at 28.5 h, 10 µM read?
Its viability at 28.5 h, 10 µM is 101%.

With `CC(C)(C)c1ccc(OCC(O)CSc2nnc[nH]2)cc1` (stereo not shown) [CBK261776] as the compound, how does the viability at 28.5 h, 10 µM read?
The viability at 28.5 h, 10 µM was 103%.

Which viability at 28.5 h, 10 µM does the source give for `c1ccc(Oc2cccc(OCCCN3CCCCC3)c2)cc1` [CBK261781] here?
The viability at 28.5 h, 10 µM was 95.2%.

With `Brc1ccc(OCCCCCCN2CCCCC2)cc1` [CBK261784] as the compound, how does the viability at 28.5 h, 10 µM read?
Its viability at 28.5 h, 10 µM is 97%.

For `O=C(O)/C=C/C(=O)NNC(=O)c1ccccc1Br` [CBK261786], which viability at 28.5 h, 10 µM is on record?
Its viability at 28.5 h, 10 µM is 111%.

Which viability at 28.5 h, 10 µM does the source give for `CC1=NN(c2ccc([N+](=O)[O-])cc2)C(=O)/C1=C\NCCN1CCN(C(=O)c2ccc(Br)cc2)CC1` [CBK261788] here?
Its viability at 28.5 h, 10 µM is 110%.

With `O=C(O)CC(C(=O)O)N1C(=O)/C(=C2/C(=O)Nc3ccc(Br)cc32)SC1=S` (stereo not shown) [CBK261791] as the compound, how does the viability at 28.5 h, 10 µM read?
Its viability at 28.5 h, 10 µM is 104%.

For `CC(=O)Oc1cccc(NC(=O)CC2Sc3ccccc3NC2=O)c1` (stereo not shown) [CBK261792], which viability at 28.5 h, 10 µM is on record?
Its viability at 28.5 h, 10 µM is 92%.

Which viability at 28.5 h, 10 µM does the source give for `O=C(/C=C/c1ccccc1Cl)NCCc1ccccc1` [CBK261794] here?
Its viability at 28.5 h, 10 µM is 97.5%.

With `NNc1nc(-c2ccccc2)cc(-c2ccc(Br)cc2)n1` [CBK261795] as the compound, how does the viability at 28.5 h, 10 µM read?
The viability at 28.5 h, 10 µM was 107%.

Which viability at 28.5 h, 10 µM does the source give for `O=[N+]([O-])c1ccc(S(=O)(=O)NCCc2nc3ccccc3[nH]2)cc1` [CBK261796] here?
Its viability at 28.5 h, 10 µM is 112%.

With `COc1ccc(-c2csc(Nc3ccc(S(=O)(=O)Nc4cc(C)on4)cc3)n2)cc1OC` [CBK261797B] as the compound, how does the viability at 28.5 h, 10 µM read?
The viability at 28.5 h, 10 µM was 95.3%.

Which viability at 28.5 h, 10 µM does the source give for `COc1ccc(/C=N\N(C)c2nc(-c3ccccc3)cc(-c3ccc(Br)cc3)n2)cc1OC` [CBK261799] here?
Its viability at 28.5 h, 10 µM is 104%.

With `O=C(NCCc1nc2ccccc2[nH]1)Nc1ccccc1` [CBK261803] as the compound, how does the viability at 28.5 h, 10 µM read?
The viability at 28.5 h, 10 µM was 103%.

Which viability at 28.5 h, 10 µM does the source give for `O=C(/C=C/c1ccccc1)NC(NCc1cccnc1)C(Cl)(Cl)Cl` (stereo not shown) [CBK261804] here?
The viability at 28.5 h, 10 µM was 95.3%.

With `COc1cccc(OCCCCCc2c(C)n[nH]c2C)c1` [CBK261805] as the compound, how does the viability at 28.5 h, 10 µM read?
The viability at 28.5 h, 10 µM was 104%.

Which viability at 28.5 h, 10 µM does the source give for `c1ccc2[nH]c(CCc3nc4ccccc4[nH]3)nc2c1` [CBK261807] here?
The viability at 28.5 h, 10 µM was 111%.

For `Cc1cc(SCC(C)C)n2ncnc2n1` [CBK261808], which viability at 28.5 h, 10 µM is on record?
Its viability at 28.5 h, 10 µM is 112%.

With `O=C(O)C/N=C1/CCCc2ccccc2N1` [CBK261809] as the compound, how does the viability at 28.5 h, 10 µM read?
Its viability at 28.5 h, 10 µM is 90.7%.

With `CC(=O)N(Cc1ccccc1)C1CCCc2c1[nH]c1ccc(C)cc21` (stereo not shown) [CBK261810] as the compound, how does the viability at 28.5 h, 10 µM read?
The viability at 28.5 h, 10 µM was 98%.

With `O=C(O)c1ccc(-c2ccc(/C=c3\sc4nc5ccccc5n4c3=O)o2)cc1` [CBK261817] as the compound, how does the viability at 28.5 h, 10 µM read?
The viability at 28.5 h, 10 µM was 99.3%.

For `O=C1NC(=S)N/C1=C/c1cc2c(cc1Cl)OCO2` [CBK261818], which viability at 28.5 h, 10 µM is on record?
Its viability at 28.5 h, 10 µM is 91.5%.

For `O=C1CSC(=O)N1CNc1ccc(Br)cc1` [CBK261819], which viability at 28.5 h, 10 µM is on record?
Its viability at 28.5 h, 10 µM is 90.2%.

With `C=CCc1ccc(OCC(=O)NN)c(OC)c1` [CBK261831] as the compound, how does the viability at 28.5 h, 10 µM read?
Its viability at 28.5 h, 10 µM is 97.5%.

With `CCOC1C(OCC)N(S(=O)(=O)c2ccc(C)cc2)CCN1S(=O)(=O)c1ccc(C)cc1` (stereo not shown) [CBK261832] as the compound, how does the viability at 28.5 h, 10 µM read?
Its viability at 28.5 h, 10 µM is 116%.

For `CC(C)(CO)NC(=O)COc1ccc(Cl)cc1` [CBK261833], which viability at 28.5 h, 10 µM is on record?
Its viability at 28.5 h, 10 µM is 103%.

same assay, conditions: human, hela cells, % viability, bulk resorufin, single well

With `O=C(NN=C1CCCCC1)C(O)(c1ccccc1)c1ccccc1` [CBK261783] as the compound, how does the viability at 28.5 h, 10 µM read?
Its viability at 28.5 h, 10 µM is 91.1%.

Which viability at 28.5 h, 10 µM does the source give for `Cc1ccc(OP(=O)(NCCN2CCOCC2)Oc2ccc(C)cc2)cc1` [CBK261802] here?
The viability at 28.5 h, 10 µM was 107%.

Which viability at 28.5 h, 10 µM does the source give for `CN(C)CCCN/C=C1/C(=O)NC(=S)N(c2ccc(Cl)cc2)C1=O` [CBK261828] here?
The viability at 28.5 h, 10 µM was 91.6%.

For `Cc1ccccc1N1C(=O)NC(=O)/C(=C/NCCCn2ccnc2)C1=O` [CBK261829], which viability at 28.5 h, 10 µM is on record?
Its viability at 28.5 h, 10 µM is 107%.
